Results as given in patent publication US4808616A, “6-substituted androsta-1,4-diene-3,17-diones” (Farmitalia Carlo Erba S.r.l., priority 1985, dated 1989).

Key:
[1] = women; cited from earlier work
rat ovarian aromatase = test: Inhibition of rat ovarian aromatase in vivo (PMSG-treated adult female rats, oral)
[2] = target: T1, human placental aromatase (Homo sapiens, UniProt P11511); test: Inhibition of human placental aromatase in vitro; format: biochemical
T1 construct: isolated from the microsomal fraction of human placental tissue; from tissue; host or cells: human placenta, microsomal fraction
T1 sequence (P11511 1-503): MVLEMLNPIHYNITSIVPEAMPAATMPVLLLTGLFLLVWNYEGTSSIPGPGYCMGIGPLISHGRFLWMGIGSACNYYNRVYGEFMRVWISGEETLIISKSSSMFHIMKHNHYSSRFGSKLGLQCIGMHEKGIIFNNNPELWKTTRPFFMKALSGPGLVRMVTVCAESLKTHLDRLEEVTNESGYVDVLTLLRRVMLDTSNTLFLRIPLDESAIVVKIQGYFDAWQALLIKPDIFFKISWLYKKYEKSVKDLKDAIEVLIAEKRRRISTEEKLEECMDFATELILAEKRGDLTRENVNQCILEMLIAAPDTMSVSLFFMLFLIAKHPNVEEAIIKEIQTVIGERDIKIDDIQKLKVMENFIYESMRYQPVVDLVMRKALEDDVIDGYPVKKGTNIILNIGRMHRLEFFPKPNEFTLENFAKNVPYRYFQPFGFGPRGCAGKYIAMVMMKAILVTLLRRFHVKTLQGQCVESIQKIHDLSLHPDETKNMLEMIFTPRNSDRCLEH

[3] = 30 mg/kg p.o., rats, ovaries taken 24 hrs later

Compound	conjugation after oral administration [1]	% Aromatase inhibition at 30 mg/kg p.o. (result in words) (rat ovarian aromatase; [3])	effectiveness in vivo by oral route (in words) (rat ovarian aromatase; administered in vivo by oral route)	Relative potency [2]	% Aromatase inhibition at 30 mg/kg p.o. (rat ovarian aromatase; [3])
C[C@]12CCC(=O)C(O)=C1CC[C@@H]1[C@@H]2CC[C@]2(C)C(=O)CC[C@@H]12 [4-hydroxy-androst-4-ene-3,17-dione]	extensively conjugated after oral administration	inactive	ineffective		
C[C@]12C=CC(=O)C=C1CC[C@@H]1[C@@H]2CC[C@]2(C)OC(=O)CC[C@@H]12 [Δ^1 -testololactone, reference compound]		inactive		0.005	
C=C1C[C@@H]2[C@H](CC[C@]3(C)C(=O)CC[C@@H]23)[C@@]2(C)CCC(=O)C=C12 [6-methylenandrost-4-ene-3,17-dione, reference compound]		inactive			
C[C@]12C=CC(=O)C=C1CC[C@@H]1[C@@H]2CC[C@]2(C)C(=O)CC[C@@H]12 [androsta-1,4-diene-3,17-dione]					37%
